ChEMBL document CHEMBL3132788, “A new route towards fimbrolide analogues: importance of the exomethylene motif in LuxR dependent quorum sensing inhibition” (Medchemcomm, 2013)
The source made the active and inactive calls. The calls are words filed in the database; no cut-off is given here.

Assays:
[1] = (§1) Antagonist activity at quorum sensing system in Escherichia coli NM522 carrying Vibrio fischeri luxR and luxICDBE promoter region assessed as inhibition of 3-oxo-C6HSL induced bioluminescence production after 4 to 5 hrs by luminometer
Escherichia coli [2] = experiment: Agonist activity at quorum sensing system in Escherichia coli NM522 carrying Vibrio fischeri luxR and luxICDBE promoter region assessed as bioluminescence production after 4 to 5 hrs by luminometer
Escherichia coli [3] = experiment: Growth inhibition of Escherichia coli NM522 carrying Vibrio fischeri luxR and luxICDBE promoter region at 20 uM to 20 mM after overnight incubation by disk diffusion assay; type: organism-based; conditions: in vivo
Escherichia coli [4] = experiment: as §1

| SMILES | IC50 [1] [µM] | Activity (Escherichia coli [2]) | Activity (Escherichia coli [3]) | inhibition (Escherichia coli [4]) |
| --- | --- | --- | --- | --- |
| C=C1C=C(CCCC)C(=O)O1 | > 200 | inactive |  |  |
| CCCC(O)C1=C/C(=C/Br)OC1=O (centres undefined) | 14 | inactive |  |  |
| CCCCC1=C/C(=C/Br)OC1=O | 0.6 | inactive | Non-toxic |  |
| CCCCCC(O)C1=CCOC1=O (centres undefined) |  | inactive |  | inactive |
| CCCC(O)C1=C/C(=C\Br)OC1=O (centres undefined) | 18 | inactive |  |  |
| CCCCCCCC(O)C1=C/C(=C/Br)OC1=O (centres undefined) | 25 | inactive |  |  |
| CCCCC1=C(Br)/C(=C/Br)OC1=O | 45 |  |  |  |
| CCCCCCC1=CCOC1=O | > 200 | inactive |  |  |
| CCCC(O)C1=CCOC1=O (centres undefined) |  | inactive |  | inactive |
| CCCCC1=CCOC1=O | > 200 | inactive |  |  |
| C=C1C=C(C(O)CCCCC)C(=O)O1 (centres undefined) | 8 | inactive |  |  |
| C=C1C=C(CCCCCC)C(=O)O1 | > 200 | inactive |  |  |
| C=C1C=C(C(O)CCC)C(=O)O1 (centres undefined) | 52 | inactive |  |  |
| CCCCCC(O)C1=C/C(=C/Br)OC1=O (centres undefined) | 6 | inactive |  |  |
| C=C1C=C(C(O)CCCCCCC)C(=O)O1 (centres undefined) | 15 | inactive |  |  |
| CCCCCCC1=C/C(=C/Br)OC1=O | 3 | inactive |  |  |
| CCCCCCCC(O)C1=CCOC1=O (centres undefined) |  | inactive |  | inactive |
